Reference: ChEMBL document CHEMBL4219183, “Novel purine benzimidazoles as antimicrobial agents by regulating ROS generation and targeting clinically resistant Staphylococcus aureus DNA groove” (Bioorg Med Chem Lett, 2018)
≈ marks a conversion by molar mass, not a printed value.

Assays:
Format in all cases: functional
Pseudomonas aeruginosa [1] = assay: Antibacterial activity against Pseudomonas aeruginosa ATCC 27853 after 24 hrs by two fold serial dilution method; conditions: ATCC 27853, 24 h
Pseudomonas aeruginosa [2] = assay: Antibacterial activity against Pseudomonas aeruginosa after 24 hrs by two fold serial dilution method
Staphylococcus aureus [3] = assay: Antibacterial activity against Staphylococcus aureus ATCC 29213 after 24 hrs by two fold serial dilution method; conditions: ATCC 29213, 24 h
Aspergillus fumigatus = assay: Antifungal activity against Aspergillus fumigatus after 24 hrs by two fold serial dilution method
Candida tropicalis = assay: Antifungal activity against Candida tropicalis after 24 hrs by two fold serial dilution method
Staphylococcus aureus [4] = assay: Antibacterial activity against Staphylococcus aureus after 24 hrs by two fold serial dilution method
Staphylococcus aureus [5] = assay: Antibacterial activity against Staphylococcus aureus ATCC 25923 after 24 hrs by two fold serial dilution method; conditions: ATCC 25923, 24 h
Candida albicans [6] = assay: Antifungal activity against Candida albicans after 24 hrs by two fold serial dilution method
Staphylococcus aureus [7] = assay: Antibacterial activity against methicillin-resistant Staphylococcus aureus N315 after 24 hrs by two fold serial dilution method; conditions: N315, 24 h
Enterococcus faecalis = assay: Antibacterial activity against Enterococcus faecalis after 24 hrs by two fold serial dilution method
Klebsiella pneumoniae = assay: Antibacterial activity against Klebsiella pneumoniae after 24 hrs by two fold serial dilution method
Candida albicans [8] = assay: Antifungal activity against Candida albicans ATCC 90023 after 24 hrs by two fold serial dilution method; conditions: ATCC 90023, 24 h
Escherichia coli [9] = assay: Antibacterial activity against Escherichia coli after 24 hrs by two fold serial dilution method
Escherichia coli [10] = assay: Antibacterial activity against Escherichia coli ATCC 25922 after 24 hrs by two fold serial dilution method; conditions: ATCC 25922, 24 h
Acinetobacter baumannii = assay: Antibacterial activity against Acinetobacter baumannii after 24 hrs by two fold serial dilution method
Candida parapsilosis = assay: Antifungal activity against Candida parapsilosis ATCC 22019 after 24 hrs by two fold serial dilution method; conditions: ATCC 22019, 24 h

Structure (SMILES)	MIC (Pseudomonas aeruginosa [1]) [µg/mL]	MIC (Pseudomonas aeruginosa [2]) [µg/mL]	MIC (Staphylococcus aureus [3]) [µg/mL]	MIC80 (Aspergillus fumigatus) [µg/mL]	MIC80 (Candida tropicalis) [µg/mL]	MIC (Staphylococcus aureus [4]) [µg/mL]	MIC (Staphylococcus aureus [5]) [µg/mL]	MIC80 (Candida albicans [6]) [µg/mL]	MIC (Staphylococcus aureus [7]) [µg/mL]	MIC (Enterococcus faecalis) [µg/mL]	MIC (Klebsiella pneumoniae) [µg/mL]	MIC80 (Candida albicans [8]) [µg/mL]	MIC (Escherichia coli [9]) [µg/mL]	MIC (Escherichia coli [10]) [µg/mL]	MIC (Acinetobacter baumannii) [µg/mL]	MIC80 (Candida parapsilosis) [µg/mL]
c1ccc(Cn2c(Cn3cnc4c(N5CCOCC5)ncnc43)nc3ccccc32)cc1	128 (≈ 301 µM)	256 (≈ 602 µM)	256 (≈ 602 µM)	512 (≈ 1200 µM)	128 (≈ 301 µM)	512 (≈ 1200 µM)	512 (≈ 1200 µM)	256 (≈ 602 µM)	256 (≈ 602 µM)	128 (≈ 301 µM)	128 (≈ 301 µM)	256 (≈ 602 µM)	256 (≈ 602 µM)	256 (≈ 602 µM)	256 (≈ 602 µM)	512 (≈ 1200 µM)
CCCCCCCCCCn1c(Cn2cnc3c(N4CCOCC4)ncnc32)nc2ccccc21	16 (≈ 33.6 µM)	256 (≈ 538 µM)	256 (≈ 538 µM)	256 (≈ 538 µM)	256 (≈ 538 µM)	256 (≈ 538 µM)	256 (≈ 538 µM)	128 (≈ 269 µM)	256 (≈ 538 µM)	128 (≈ 269 µM)	128 (≈ 269 µM)	64 (≈ 135 µM)	32 (≈ 67.3 µM)	128 (≈ 269 µM)	256 (≈ 538 µM)	256 (≈ 538 µM)
C#CCn1c(Cn2cnc3c(N4CCOCC4)ncnc32)nc2ccccc21	128 (≈ 343 µM)	256 (≈ 686 µM)	256 (≈ 686 µM)	512 (≈ 1370 µM)	128 (≈ 343 µM)	128 (≈ 343 µM)	128 (≈ 343 µM)	256 (≈ 686 µM)	512 (≈ 1370 µM)	256 (≈ 686 µM)	128 (≈ 343 µM)	256 (≈ 686 µM)	128 (≈ 343 µM)	512 (≈ 1370 µM)	256 (≈ 686 µM)	256 (≈ 686 µM)
Cc1cc2ncn(CCn3cnc4c(N5CCOCC5)ncnc43)c2cc1C	128 (≈ 339 µM)	32 (≈ 84.8 µM)	128 (≈ 339 µM)	128 (≈ 339 µM)	128 (≈ 339 µM)	256 (≈ 678 µM)	256 (≈ 678 µM)	256 (≈ 678 µM)	256 (≈ 678 µM)	128 (≈ 339 µM)	64 (≈ 170 µM)	128 (≈ 339 µM)	256 (≈ 678 µM)	256 (≈ 678 µM)	256 (≈ 678 µM)	256 (≈ 678 µM)
CCCCn1c(Cn2cnc3c(N4CCOCC4)ncnc32)nc2ccccc21	128 (≈ 327 µM)	256 (≈ 654 µM)	128 (≈ 327 µM)	256 (≈ 654 µM)	128 (≈ 327 µM)	256 (≈ 654 µM)	256 (≈ 654 µM)	256 (≈ 654 µM)	512 (≈ 1310 µM)	256 (≈ 654 µM)	256 (≈ 654 µM)	128 (≈ 327 µM)	64 (≈ 163 µM)	128 (≈ 327 µM)	256 (≈ 654 µM)	256 (≈ 654 µM)
Cc1nc2cc([N+](=O)[O-])ccc2n1CCn1cnc2c(N3CCOCC3)ncnc21	64 (≈ 157 µM)	64 (≈ 157 µM)	64 (≈ 157 µM)	128 (≈ 313 µM)	64 (≈ 157 µM)	16 (≈ 39.2 µM)	128 (≈ 313 µM)	512 (≈ 1250 µM)	256 (≈ 627 µM)	128 (≈ 313 µM)	128 (≈ 313 µM)	256 (≈ 627 µM)	128 (≈ 313 µM)	16 (≈ 39.2 µM)	32 (≈ 78.4 µM)	256 (≈ 627 µM)
c1nc2nc[nH]c(N3CCCC3)c-2n1	128 (≈ 676 µM)	256 (≈ 1350 µM)	512 (≈ 2710 µM)	64 (≈ 338 µM)	128 (≈ 676 µM)	64 (≈ 338 µM)	512 (≈ 2710 µM)	128 (≈ 676 µM)	512 (≈ 2710 µM)	512 (≈ 2710 µM)	512 (≈ 2710 µM)	256 (≈ 1350 µM)	256 (≈ 1350 µM)	256 (≈ 1350 µM)	256 (≈ 1350 µM)	512 (≈ 2710 µM)
CCn1c(Cn2cnc3c(N4CCOCC4)ncnc32)nc2ccccc21	256 (≈ 704 µM)	128 (≈ 352 µM)	256 (≈ 704 µM)	256 (≈ 704 µM)	256 (≈ 704 µM)	256 (≈ 704 µM)	256 (≈ 704 µM)	256 (≈ 704 µM)	256 (≈ 704 µM)	128 (≈ 352 µM)	256 (≈ 704 µM)	128 (≈ 352 µM)	128 (≈ 352 µM)	128 (≈ 352 µM)	256 (≈ 704 µM)	256 (≈ 704 µM)
Fc1cccc(Cn2c(Cn3cnc4c(N5CCOCC5)ncnc43)nc3ccccc32)c1	128 (≈ 289 µM)	256 (≈ 577 µM)	64 (≈ 144 µM)	256 (≈ 577 µM)	128 (≈ 289 µM)	256 (≈ 577 µM)	32 (≈ 72.2 µM)	256 (≈ 577 µM)	512 (≈ 1150 µM)	128 (≈ 289 µM)	16 (≈ 36.1 µM)	32 (≈ 72.2 µM)	256 (≈ 577 µM)	256 (≈ 577 µM)	256 (≈ 577 µM)	128 (≈ 289 µM)
CCCCCCn1c(Cn2cnc3c(N4CCCC4)ncnc32)nc2ccccc21	256 (≈ 634 µM)	128 (≈ 317 µM)	512 (≈ 1270 µM)	128 (≈ 317 µM)	128 (≈ 317 µM)	32 (≈ 79.3 µM)	64 (≈ 159 µM)	64 (≈ 159 µM)	64 (≈ 159 µM)	256 (≈ 634 µM)	128 (≈ 317 µM)	32 (≈ 79.3 µM)	256 (≈ 634 µM)	16 (≈ 39.6 µM)	64 (≈ 159 µM)	32 (≈ 79.3 µM)
